Experimental findings from patent US20250129051A1, “PARP1 INHIBITORS AND USES THEREOF” (Gilead Sciences, Inc., priority 2023, published 2025) are described below.

Holding throughout (assay type): cell-based
One assay relates to DLD-1 parental cells. The experiment in a line: Cell growth inhibition assay (CellTiter-Glo), DLD-1 parental. The following applies: Homo sapiens, 168 h, 7 days, CellTiter Glo 2.0. An excerpt: (§1) The objective of this study was to evaluate the effect of a compound disclosed herein on cell proliferation through the cell viability assay in DLD-1 BRCA2 (−/−) and parental isogenic pair and MDA-MB-436 (mutated BRCA1) cell lines. The CellTiter-Glo (CTG) based cell viability assay was designed to determine the number of viable cells in the culture because of compound effect, by quantifying adenosine triphosphate (ATP), which indicates the presence of metabolically active cells.
(§2) DLD-1 BRCA2 (−/−) and parental isogenic pair were cultured in RPMI 1640 supplemented with 10% fetal bovine serum (FBS), and MDA-MB-436 cells were cultured in Dulbecco's Modified Eagle Medium (DMEM) supplemented with 10% FBS. Both were cultured at 37° C. with 5% CO2. Compounds were distributed to the 384 well plate (Corning, 3764) using Echo acoustic liquid handler to form a 1:3 serially diluted final concentration with top dose of 10 or 30 μM. The cells were seeded into the plate in the density of 50 cells/well (DLD-1 parental), 200 cells/well (DLD-1 BRCA2−/−), or 500 cells/well (MDA-MB-436). After a short spin, the cells were cultured in a well moisturized incubator at 37° C. with 5% CO2 for 7 days without disturbance. The cell viability was measured by CellTiter Glo 2.0 assay kit (Promega, G9243), and growth inhibition rate was calculated and plotted against final compound concentration, and the data were fitted in Xfit to generate IC50.
In general terms: In ATP-based viability assays light output follows the ATP content of the culture.

Another assay concerns DLD-1 BRCA2 (−/−) cells. The experiment in a line: Cell growth inhibition assay (CellTiter-Glo), DLD-1 BRCA2 (−/−). Particulars: Homo sapiens, 168 h, 7 days, CellTiter Glo 2.0.
Excerpt: as §1, §2

In assay [1] the test system is MDA-MB-436 (mutated BRCA1) cells. The experiment in a line: Cell growth inhibition assay (CellTiter-Glo), MDA-MB-436. Particulars: Homo sapiens, 168 h; MDA-MB-436 cells, 7 days, CellTiter Glo 2.0.
Excerpt: as §1, §2

By IC50 is commonly meant the point on the concentration scale where inhibition reaches its midpoint.

As for `CNC(=O)c1ccc(O[C@H]2CN(Cc3ccc4nc(C)c(=O)[nH]c4c3F)[C@@H]2C)c(F)n1` [Compound 5, 6-fluoro-5-(((2R,3S)-1-((5-fluoro-2-methyl-3-oxo-3,4-dihydroquinoxalin-6-yl)methyl)-2-methylazetidin-3-yl)oxy)-N-methylpicolinamide], the IC50 was greater than 10000 nM with DLD-1 parental cells, 67 nM with DLD-1 BRCA2 (−/−) cells and 23 nM in assay [1].
With `Cc1nc2ccc(CN3C[C@H](Oc4ccc(C(=O)NC5CC5)nc4F)[C@H]3C)c(F)c2[nH]c1=O` [Compound 6, N-cyclopropyl-6-fluoro-5-(((2R,3S)-1-((5-fluoro-2-methyl-3-oxo-3,4-dihydroquinoxalin-6-yl)methyl)-2-methylazetidin-3-yl)oxy) picolinamide], the figures for the IC50 (in the assay with DLD-1 parental cells; with DLD-1 BRCA2 (−/−) cells; in assay [1]) were greater than 10000 nM, 28 nM and 8.9 nM, respectively.
On the same counts, the results for `Cc1nc2ccc(CN3C[C@H](Oc4ccc(C#N)nc4F)[C@H]3C)c(F)c2[nH]c1=O` [Compound 7, 6-fluoro-5-(((2R,3S)-1-((5-fluoro-2-methyl-3-oxo-3,4-dihydroquinoxalin-6-yl)methyl)-2-methylazetidin-3-yl)oxy) picolinonitrile] are greater than 10000 nM, greater than 1000 nM and greater than 1000 nM.
